Patent US20060147924A1, “Population of nucleic acids including a subpopulation of lna oligomers” (priority 2002, published 2006)

Legend:
3′-TGTATC = test: Tm of duplexes of 6-mers with LNA 3′-TGTATC; assay type: binding; details: Table 8; duplexes 2.5 μM; 0.1 M NaCl, 10 mM Na-phosphate pH 7.0, 10 mM EDTA
Description: (§1) (entry 1) to 53.5° C. (entry 2) thus verifying the reduced strength of the intramolecular hydrogen bonds of the self complementary oligonucleotide. At the same time the oligonucleotides containing the SBC LNA monomers are able to hybridize to complementary DNA due to the increased binding efficiency of LNA-D and LNA-^2SU. Similarly as exemplified in Table 8 (see below) the Tm of a duplex between 2 complementary oligonucleotides containing e.g. 3 SBC LNA pairs (entry 3) is reduced to 59° C. from the corresponding non-SBC LNA duplex (82° C.-entry 1) while the single-stranded SBC LNA oligonucleotides still are capable to hybridize to complementary non-modified LNA oligonucleotides as well as DNA oligonucleotides with increased Tm.

3′-TG^2SUATC = test: Tm of duplexes of 6-mers with SBC-LNA 3′-TG^2SUATC; assay type: binding; details: Table 8; duplexes 2.5 μM; 0.1 M NaCl, 10 mM Na-phosphate pH 7.0, 10 mM EDTA
Description: as §1

3′-ctgtatcc = test: Thermal denaturation (Tm) of duplexes with complementary DNA 3′-ctgtatcc; assay type: binding; details: Table 8; duplexes 2.5 μM; 0.1 M NaCl, 10 mM Na-phosphate pH 7.0, 10 mM EDTA
Description: The complexing properties of oligonucleotides containing new LNA monomers 1-3 were assessed. Comparative binding data from an 8-mer LNA sequence is shown in Table 4 as the melting temperatures against complementary single-stranded DNA. An exemplary sequence for this comparison is GACATAGG, which is the central part of a capture probe used for SNP detection in GluclVS7-7asA (A:a mismatch position). The thermal stabilities of reference DNA duplexes (entries 1-7, Table 4) can be directly compared with their LNA counterparts (entries 8-14). […] The average melting temperatures of DNA and LNA 8-mers against complementary DNAs typically differ by about 40° C. […] (i.e., entries 1 and 4). D-nucleosides may facilitate a B to A helix transition, because the A-type structure of an LNA:DNA duplex is more suitable for effective D:t pairing. This stabilizing effect is expected to be even more pronounced for LNA:RNA duplexes, which can be very useful for construction of antisense or other gene-silencing reagents. The mismatch discrimination ability of the D-nucleoside was also studied (entry 11).
The absorbance was monitored at 260 nm while raising the temperature at a rate of 1° C. per min. The melting temperatures (Tm values) of the duplexes were determined as the maximum of the first derivatives of the melting curves obtained.

3′-^2SUG^2SUA^2SUC = test: Tm of duplexes of 6-mers with SBC-LNA 3′-^2SUG^2SUA^2SUC; assay type: binding; details: Table 8; duplexes 2.5 μM; 0.1 M NaCl, 10 mM Na-phosphate pH 7.0, 10 mM EDTA
Description: as §1

[1] = test system: self complementary duplex; test: Tm of self complementary duplexes of dual labeled SBC-LNA probes; assay type: binding; details: Table 7, duplexes 2 μM, 0.1 M NaCl, 10 mM Na-phosphate pH 7.0, 1 mM EDTA
Description: as §1

3′-ACGGCCAC-5′ = test: Tm of LNA:DNA and DNA:DNA 8-mer duplexes, single mismatch (Table 2); assay type: binding; details: for ΔTm: perfect match vs single mismatch
From the text: (§2) It is often difficult to design probes and primers with the same range of melting temperature due to the variance in A/T and G/C content of the probing sites. Highly A/T rich regions typically give lower Tm values. Furthermore, if single mismatches are to be resolved, G/T mismatches are known to contribute little to ΔTm. As discussed above, the use of LNA is a desirable way to solve problems related to multiplex use of primers and probes. LNA offers the possibility to adjust Tm and increase the ΔTm at the same time. LNA increases Tm with 4-8° C./substitution and Increases ΔTm in many cases with several 100% (Table 2 and FIG. 22).

3′-ACGACCAC-5′ = test: Tm of LNA:DNA and DNA:DNA 8-mer duplexes, perfect match (Table 2); assay type: binding
From the text: as §2

aagagtccagtg = test: Tm of chimeric LNA-DNA 12-mers, Gluc53as-A, perfect duplex; assay type: binding; details: Table 5, Gluc53as-A, duplexes 2 μM, buffer as Table 4
Description: (§3) The thermal denaturation experiments were performed on a Perkin-Elmer UV/VIS spectrometer fitted with a PTP-6 Peltier temperature-programming element using a medium salt buffer solution (10 mM sodium phosphate, 100 mM sodium chloride, 0.1 mM EDTA, pH 7.0). […] The absorbance was monitored at 260 nm while raising the temperature at a rate of 1° C. per min. The melting temperatures (Tm values) of the duplexes were determined as the maximum of the first derivatives of the melting curves obtained.

aagaggccagtg = test: Tm of chimeric LNA-DNA 12-mers, Gluc53as-A, singly mismatched duplex; assay type: binding; details: for Tm (± 0.5° C.) of the duplexes with DNA oligonucleotide aagaggccagtg: Table 5, Gluc53as-A, singly mismatched, duplexes 2 μM, buffer as Table 4; for ΔTm between singly mismatched and perfect duplexes (Gluc53as-A): Table 5, value in brackets
Description: as §3

caacaacccaca = test: Tm of chimeric LNA-DNA 12-mers, HNFas128A-2, singly mismatched duplex; assay type: binding; details: for Tm (± 0.5° C.) of the duplexes with DNA oligonucleotide caacaacccaca: Table 5, HNFas128A-2, singly mismatched, duplexes 2 μM, buffer as Table 4; for ΔTm between singly mismatched and perfect duplexes (HNFas128A-2): Table 5, value in brackets
Description: as §3

caacatcccaca = test: Tm of chimeric LNA-DNA 12-mers, HNFas128A-2, perfect duplex; assay type: binding; details: Table 5, HNFas128A-2, perfect duplex; duplexes 2 μM; buffer as Table 4
Description: as §3

With 5′-ACATAG the “Tm of the duplexes with 3′-TGTATC” value (3′-TGTATC) was 82 °C, the “Tm of the duplexes with 3′-TG^2SUATC” value (3′-TG^2SUATC) was 85 °C and the “Tm of the duplexes with 3′-ctgtatcc” value (3′-ctgtatcc) was 27 °C. For the same compound, the “Tm of the duplexes with 3′-^2SUG^2SUA^2SUC” value (“Tm … with 3′-^2SUG^2SUA^2SUC” for short) (3′-^2SUG^2SUA^2SUC) was 83 °C.

With 5′-ACDTAG the “Tm of the duplexes with 3′-TGTATC” value (3′-TGTATC) was 93 °C, the “Tm of the duplexes with 3′-TG^2SUATC” value (3′-TG^2SUATC) was 75 °C and the “Tm of the duplexes with 3′-ctgtatcc” value (3′-ctgtatcc) was 37 °C. The “Tm … with 3′-^2SUG^2SUA^2SUC” value (3′-^2SUG^2SUA^2SUC) was 73 °C.

For 5′-DCDTDG, the “Tm of the duplexes with 3′-TGTATC” value (3′-TGTATC) was >97 °C, the “Tm of the duplexes with 3′-TG^2SUATC” value (3′-TG^2SUATC) was 95 °C and the “Tm of the duplexes with 3′-ctgtatcc” value (3′-ctgtatcc) was 55 °C. The “Tm … with 3′-^2SUG^2SUA^2SUC” value (3′-^2SUG^2SUA^2SUC) was 59 °C.

In the case of 5′-Fitc-tAAATTTTA-EQL, the “Tm ^a of self complementary duplexes” value [1] is reported as >90 (94-96) ° C and the “Tm ^a of self complementary duplexes” value ([1]; listed as Table 7 entry 1) is reported as 90 °C.

For 5′-Fitc-tDDDt^2S U^2SU^2SUa-EQL, the “Tm ^a of self complementary duplexes” value [1] was 64.5 °C.

With 5′-Fitc-taDDT^2SU^2SUta-EQL the “Tm ^a of self complementary duplexes” value [1] was 53.5 °C.

With “5′-TGCTGGTG-3′ [DNA 8-mer, reference compound]” the “Tm of LNA:DNA Duplexes, Single mismatch 3′-ACGGCCAC-5′” value (3′-ACGGCCAC-5′) was 25 °C, the ΔTm (3′-ACGGCCAC-5′) was 10 °C and the “Tm of LNA:DNA Duplexes, Perfect match 3′-ACGACCAC-5′” value (3′-ACGACCAC-5′) was 35 °C.

For 5′-TGCTGGTG-3′ [LNA 8-mer], the “Tm of LNA:DNA Duplexes, Single mismatch 3′-ACGGCCAC-5′” value (3′-ACGGCCAC-5′) was 45 °C, the ΔTm (3′-ACGGCCAC-5′) was 26 °C and the “Tm of LNA:DNA Duplexes, Perfect match 3′-ACGACCAC-5′” value (3′-ACGACCAC-5′) was 71 °C.

In the case of `Nc1ncc2ncn([C@@H]3O[C@@]4(CO)CO[C@@H]3[C@@H]4O)c2n1` [Compound 23, (1S,3R,4R,7S)-3-(2-aminopurin-9-yl)-7-hydroxy-1-hydroxymethyl-2,5-dioxabicyclo[2.2.1]heptane], the melting point is reported as 227.5 to 229 °C (dec.).

With “cAmCtgGAmCtctt (CACTGGACTCTT; mixed-case modified oligonucleotide, notation key not given here) [chimeric LNA-DNA 12-mer, Gluc53as-A, with LNA-A]” the “Tm (± 0.5° C.) of the complementary duplexes with DNA oligonucleotide aagagtccagtg” value (aagagtccagtg) was 61.5 °C, the “Tm (± 0.5° C.) of the duplexes with DNA oligonucleotide aagaggccagtg” value (aagaggccagtg) was 50.6 °C and the “ΔTm between singly mismatched and perfect duplexes (Gluc53as-A)” value (aagaggccagtg) was −10.9 °C.

In the case of cAmCtgGDmCtctt, the “Tm (± 0.5° C.) of the complementary duplexes with DNA oligonucleotide aagagtccagtg” value (aagagtccagtg) is reported as 65.3 °C, the “Tm (± 0.5° C.) of the duplexes with DNA oligonucleotide aagaggccagtg” value (aagaggccagtg) is reported as 45.4 °C and the “ΔTm between singly mismatched and perfect duplexes (Gluc53as-A)” value (aagaggccagtg) is reported as −19.9 °C.

In the case of “tGtggGATGttg (TGTGGGATGTTG; chemistry not given here) [chimeric LNA-DNA 12-mer, HNFas128A-2, with LNA-A]”, the “Tm (± 0.5° C.) of the duplexes with DNA oligonucleotide caacaacccaca” value (caacaacccaca) is reported as 45.9 °C, the “ΔTm between singly mismatched and perfect duplexes (HNFas128A-2)” value (caacaacccaca) is reported as −15.1 °C and the “Tm (± 0.5° C.) of the complementary duplexes with DNA oligonucleotide caacatcccaca” value (caacatcccaca) is reported as 61.0 °C.

For tGtggGDTGttg, the “Tm (± 0.5° C.) of the duplexes with DNA oligonucleotide caacaacccaca” value (caacaacccaca) was 49.7 °C, the “ΔTm between singly mismatched and perfect duplexes (HNFas128A-2)” value (caacaacccaca) was −15.8 °C and the “Tm (± 0.5° C.) of the complementary duplexes with DNA oligonucleotide caacatcccaca” value (caacatcccaca) was 65.5 °C.
